Laboratory results taken from patent EP4737449A1 (Changchun Genescience Pharmaceutical Co., Ltd., priority 2023, dated 2025).

Tests used:
[1] = Pharmacokinetic study in beagles; format: in vivo; settings: dog, plasma; for bioavailability: IV 1mpk/PO 2mpk
Experimental: On the day of administration, the test sample was prepared using a 5%DMSO+5%Solutol+90%Saline vehicle formula, and the drug solution was prepared and kept ready for use.
The IV group received a dose of 1 mg/kg, and the PO group received a dose of 2 mg/kg. The animals were fasted overnight before administration.
The animals were weighed before administration, and the dose was calculated based on the body weight. The drug was administered once via IV and PO on the day of administration. After administration, blood was collected from an appropriate vein at 0.083 h, 0.25 h, 0.5 h, 1.0 h, 2.0 h, 4.0 h, 6.0 h, 8.0 h and 24.0 h, about 1 mL each time, placed in EDTA-K2 anticoagulation blood collection tubes, centrifuged at 4000 rpm for 10 min (4°C), and plasma was separated within 1 h. The plasma was drawn into labeled EP tubes (the label should at least indicate the subject code, animal number, collection time, collection date, etc.), and stored at -80°C for testing. The process from blood collection to centrifugation was carried out in ice bath. The animals were allowed to eat and have free access to water 3 h after administration. The concentration of the test sample in beagle plasma was detected using validated LC-MS/MS.

[2] = tested on: human-derived lung cancer LU5269 subcutaneous xenograft; assay: Efficacy in human-derived lung cancer LU5269 subcutaneous xenograft model; format: in vivo, NOD/SCID mice; settings: PO, QD*21
Experimental: Tumor tissues were collected from LU5269 lung cancer xenograft model bearing mice, cut into tumor masses with a diameter of 2-3 mm, and seeded subcutaneously in the right anterior scapula of NOD/SCID mice.
Before administration, all animals were weighed and tumor volume was measured using a vernier caliper. When the tumor grew to have an average volume of about 140 mm^3, group-based drug administration was performed based on tumor size (vehicle: 0.2% HPC + 0.5% Tween 80). Since tumor volume can affect the effectiveness of treatment, random grouping design was used to group the mice according to tumor volume to ensure that the tumor volumes in different groups were similar. Tumor volume calculation formula: Tumor volume (mm^3) = 1/2 × (a ×b^2) (wherein a denotes the long diameter and b denotes the short diameter).
(§1) Table 12 Route, dose and regimen of administration in the subcutaneous xenograft model

[3] = Associated plasma PK in the LU5269 xenograft study; format: in vivo, NOD/SCID mice; settings: mouse, PO, QD*21, plasma after the last administration
Experimental: At the endpoint of the experiment, plasma samples from groups G2-G6 were collected: plasma was collected from the first 3 mice in each group at 0 h, 1 h, 2 h, and 4 h after the last administration; plasma was collected from the last 3 mice in each group at 0.5 h, 6 h, 9 h, and 24 h after the last administration.
as §1

CN1CC[C@@H](Nc2cccc3c(CC(F)(F)F)c(C#CCNC(=O)c4cnn(C(C)(C)C)c4N)nn23)[C@@H](F)C1 [Compound 047] gave an AUC(0-t) ([1]; 1 mg/kg, IV 1mpk) of 1400 ng·h/mL, a C0 ([1]; 1 mg/kg, IV 1mpk) of 414 ng/mL and a Vd ([1]; 1 mg/kg, IV 1mpk) of 3.8 L/kg. It also gave a clearance ([1]; 1 mg/kg, IV 1mpk) of 12.8 mL/min/kg, a half-life ([1]; 1 mg/kg, IV 1mpk) of 5.6 h and an AUC(0-t) ([1]; 2 mg/kg, PO 2mpk) of 1640 ng·h/mL. It also gave a Cmax ([1]; 2 mg/kg, PO 2mpk) of 199 ng/mL, a Tmax ([1]; 2 mg/kg, PO 2mpk) of 2 h and a half-life ([1]; 2 mg/kg, PO 2mpk) of 14 h. The bioavailability [1] was 42%, the TGI ([2]; 50mpk) was 82% and the TGI ([2]; 75mpk) was 111%. The TGI ([2]; 100 mpk) was 119%, the TGI ([2]; 150mpk) was 119% and the AUC(0-t) ([3]; 50 mg/kg, 50mpk) was 11700 ng·h/mL. For the same compound, the Cmax ([3]; 50 mg/kg, 50mpk) was 1690 ng/mL, the half-life ([3]; 50 mg/kg, 50mpk) was 2.2 h and the AUC(0-t) ([3]; 75 mg/kg, 75mpk) was 24400 ng·h/mL. For the same compound, the Cmax ([3]; 75 mg/kg, 75mpk) was 2590 ng/mL, the AUC(0-t) ([3]; 100 mg/kg, 100 mpk) was 39400 ng·h/mL and the Cmax ([3]; 100 mg/kg, 100 mpk) was 4440 ng/mL. The half-life ([3]; 100 mg/kg, 100 mpk) was 1.9 h, the AUC(0-t) ([3]; 150 mg/kg, 150mpk) was 68000 ng·h/mL and the Cmax ([3]; 150 mg/kg, 150mpk) was 5550 ng/mL. The half-life ([3]; 150 mg/kg, 150mpk) was 2.6 h.

In the case of CNC(=O)c1ccc(NCC#Cc2cc3c(N[C@@H]4CCN(C)C[C@@H]4F)cccc3n2CC(F)(F)F)c(OC)c1 [Control compound, reference compound], the AUC(0-t) ([1]; beagle, 1 mg/kg, IV 1mpk) is reported as 849 ng·h/mL, the C0 ([1]; beagle, 1 mg/kg, IV 1mpk) is reported as 277 ng/mL and the Vd ([1]; beagle, 1 mg/kg, IV 1mpk) is reported as 6.7 L/kg. For the same compound, the clearance ([1]; beagle, 1 mg/kg, IV 1mpk) was 20.4 mL/min/kg, the half-life ([1]; beagle, 1 mg/kg, IV 1mpk) was 4.8 h and the bioavailability ([1]; beagle, 2 mg/kg) was 82%. The AUC(0-t) ([1]; beagle, 2 mg/kg, PO 2mpk) was 1490 ng·h/mL, the Cmax ([1]; beagle, 2 mg/kg, PO 2mpk) was 101 ng/mL and the Tmax ([1]; beagle, 2 mg/kg, PO 2mpk) was 4.7 h. The half-life ([1]; beagle, 2 mg/kg, PO 2mpk) was 6.7 h, the TGI ([2]; 100 mpk) was 119% and the AUC(0-t) ([3]; NOD/SCID, 100 mg/kg, 100 mpk) was 413000 ng·h/mL. The Cmax ([3]; NOD/SCID, 100 mg/kg, 100 mpk) was 24300 ng/mL.
